Experimental data taken from US11006626B2, “Compounds for protection of cells” (Sulfateq B.V., priority 2012, dated 2021).

Tests used:
Type in all cases: cell-based
blood platelets = experiment: Cold storage of PRP blood platelets, aggregation of thrombocytes after storage; parameters: key: − means that most of the thrombocytes were aggregated; a + indicates that a few cells were still viable but some cells aggregated; a ++ indicates that almost all cells were viable; conditions: 30 mM; PRP platelets stored at 4° C.; 264 hours
Method: PRP platelets were harvested and 2.1 ml was suspended in Poly Propylene tubes of 5 ml, closed with a stop.
Several compounds according to the invention were added to the blood platelets directly after preparing the PRP plasma and incubated during 10 minutes at 37° C. or 30 minutes at room temperature. The blood platelets with the compound were then stored at 4° C.
A control was stored under shaking conditions at room temperature. Another control was stored at 4° C. without the addition of a compound.
(§1) A sample was taken out of each tube after 264 hours after addition of the compound and tested as follows: • The color and coagulation properties were visually analysed. • The thrombocyte cells that survived were counted and it was evaluated whether the thrombocytes were aggregated. • It was evaluated if the thrombocytes still were able to function after stimulation by the addition of ADP or under influence of collagen in a 96 well plate. • The adhesion was evaluated, meaning the ability of the platelets to bind collagen in a 6 well plate preincubated with collagen. • Via an ELISA assay, it was evaluated whether thromboxane was secreted from the platelets. Thromboxane facilitates aggregation and is produced by activated blood platelets.
Table 3 provides an overview of the results of the addition of the compounds to the blood platelets and evaluates the aggregation of the thrombocytes after addition of the compound according to the invention and cooling until 4° C.

PRP platelets [1] = experiment: PRP platelets stored at 4° C. with Sul 136, number of cells that survived; conditions: for number of cells in % relative to the number of cells at time 0: 4° C.
Method: […] The blood platelets with the compound were then stored at 4° C.
as §1, with “and” for “A sample was taken out of each tube after 264 hours after addition of the compound and”
PRP platelets were tested with the addition of Sul 136. […] The number of cells are given in % relative to the number of cells at time 0. 66% of the platelets stored at room temperature survived after 216 hours. Only 42.3% of the cells stored at 4° C. survived after 216 hours.

PRP platelets [2] = experiment: PRP platelets stored with Sul 136, aggregation after stimulation with collagen; parameters: key: +means that the cells show aggregation and can thus be activated upon stimulation; −means no aggregation upon stimulation
Method: as §1, with “A sample was taken out of each tube after 264 hours after addition of the compound and tested as follows:” left out
(§2) (+means that the cells show aggregation, ++means strong aggregation, these platelets can thus be activated upon stimulation, −means no aggregation upon stimulation)

PRP platelets [3] = experiment: as above; parameters: key: +means that the cells show aggregation; ++means strong aggregation, these platelets can thus be activated upon stimulation; −means no aggregation upon stimulation
Method: as §1, with “A sample was taken out of each tube after 264 hours after addition of the compound and tested as follows:” left out
as §2

## Cc1c(C)c2c(c(C)c1O)CCC(C)(C(=O)N1CCN(CC(=O)O)CC1)O2 (racemic) [SUL - 136, 2-(4-(6-hydroxy-2,5,7,8-tetramethylchroman-2-carbonyl)piperazin-1-yl)acetic acid]
Blood platelets
  Aggregation of blood platelets after storage: +
PRP platelets [1]; 10 min 0.001 mM, 0 h
  number of cells in % relative to the number of cells at time 0: 100%
PRP platelets [1]; 10 min 0.001 mM, 72 h
  number of cells in % relative to the number of cells at time 0: 58.9%
PRP platelets [1]; 10 min 0.001 mM, 216 h
  number of cells in % relative to the number of cells at time 0: 55.1%
PRP platelets [1]; 10 min 0.01 mM, 0 h
  number of cells in % relative to the number of cells at time 0: 100%
PRP platelets [1]; 10 min 0.01 mM, 72 h
  number of cells in % relative to the number of cells at time 0: 66.0%
PRP platelets [1]; 10 min 0.01 mM, 216 h
  number of cells in % relative to the number of cells at time 0: 52.1%
PRP platelets [1]; 10 min 0.1 mM, 0 h
  number of cells in % relative to the number of cells at time 0: 100%
PRP platelets [1]; 10 min 0.1 mM, 72 h
  number of cells in % relative to the number of cells at time 0: 55.9%
PRP platelets [1]; 10 min 0.1 mM, 216 h
  number of cells in % relative to the number of cells at time 0: 50.8%
PRP platelets [1]; 10 min 1 mM, 0 h
  number of cells in % relative to the number of cells at time 0: 100%
PRP platelets [1]; 10 min 1 mM, 72 h
  number of cells in % relative to the number of cells at time 0: 59.1%
PRP platelets [1]; 10 min 1 mM, 216 h
  number of cells in % relative to the number of cells at time 0: 59.3%
PRP platelets [1]; 10 min 10 mM, 0 h
  number of cells in % relative to the number of cells at time 0: 100%
PRP platelets [1]; 10 min 10 mM, 72 h
  number of cells in % relative to the number of cells at time 0: 64.8%
PRP platelets [1]; 10 min 10 mM, 216 h
  number of cells in % relative to the number of cells at time 0: 47.9%
PRP platelets [1]; 60 min 0.001 mM, 0 h
  number of cells in % relative to the number of cells at time 0: 100%
PRP platelets [1]; 60 min 0.001 mM, 72 h
  number of cells in % relative to the number of cells at time 0: 83.8%
PRP platelets [1]; 60 min 0.001 mM, 216 h
  number of cells in % relative to the number of cells at time 0: 86.1%
PRP platelets [1]; 60 min 0.01 mM, 0 h
  number of cells in % relative to the number of cells at time 0: 100%
PRP platelets [1]; 60 min 0.01 mM, 72 h
  number of cells in % relative to the number of cells at time 0: 82.9%
PRP platelets [1]; 60 min 0.01 mM, 216 h
  number of cells in % relative to the number of cells at time 0: 94.8%
PRP platelets [1]; 60 min 0.1 mM, 0 h
  number of cells in % relative to the number of cells at time 0: 100%
PRP platelets [1]; 60 min 0.1 mM, 72 h
  number of cells in % relative to the number of cells at time 0: 76.3%
PRP platelets [1]; 60 min 0.1 mM, 216 h
  number of cells in % relative to the number of cells at time 0: 77.6%
PRP platelets [1]; 60 min 1 mM, 0 h
  number of cells in % relative to the number of cells at time 0: 100%
PRP platelets [1]; 60 min 1 mM, 72 h
  number of cells in % relative to the number of cells at time 0: 29.9%
PRP platelets [1]; 60 min 1 mM, 216 h
  number of cells in % relative to the number of cells at time 0: 62.9%
PRP platelets [1]; 60 min 10 mM, 0 h
  number of cells in % relative to the number of cells at time 0: 100%
PRP platelets [1]; 60 min 10 mM, 72 h
  number of cells in % relative to the number of cells at time 0: 51.8%
PRP platelets [1]; 60 min 10 mM, 216 h
  number of cells in % relative to the number of cells at time 0: 43.4%
PRP platelets [1]; storage of 72 and 216 hours at 4° C., vs. no compound
  platelets survived after storage: substantial more platelets survived
PRP platelets [2]; 10 min 0.001 mM, 24 h
  aggregation of the PRP platelets after stimulation with collagen: −
PRP platelets [2]; 10 min 0.001 mM, 48 h
  aggregation of the PRP platelets after stimulation with collagen: −
PRP platelets [2]; 10 min 0.001 mM, 72 h
  aggregation of the PRP platelets after stimulation with collagen: −
PRP platelets [2]; 10 min 0.001 mM, 216 h
  aggregation of the PRP platelets after stimulation with collagen: −
PRP platelets [2]; 10 min 0.01 mM, 24 h
  aggregation of the PRP platelets after stimulation with collagen: −
PRP platelets [2]; 10 min 0.01 mM, 48 h
  aggregation of the PRP platelets after stimulation with collagen: −
PRP platelets [2]; 10 min 0.01 mM, 72 h
  aggregation of the PRP platelets after stimulation with collagen: −
PRP platelets [2]; 10 min 0.01 mM, 216 h
  aggregation of the PRP platelets after stimulation with collagen: −
PRP platelets [2]; 10 min 0.1 mM, 48 h
  aggregation of the PRP platelets after stimulation with collagen: −
PRP platelets [2]; 10 min 0.1 mM, 72 h
  aggregation of the PRP platelets after stimulation with collagen: −
PRP platelets [2]; 10 min 0.1 mM, 216 h
  aggregation of the PRP platelets after stimulation with collagen: −
PRP platelets [2]; 10 min 1 mM, 48 h
  aggregation of the PRP platelets after stimulation with collagen: −
PRP platelets [2]; 60 min 0.001 mM, 24 h
  aggregation of the PRP platelets after stimulation with collagen: −
PRP platelets [2]; 60 min 0.001 mM, 48 h
  aggregation of the PRP platelets after stimulation with collagen: −
PRP platelets [2]; 60 min 0.001 mM, 72 h
  aggregation of the PRP platelets after stimulation with collagen: −
PRP platelets [2]; 60 min 0.001 mM, 216 h
  aggregation of the PRP platelets after stimulation with collagen: −
PRP platelets [2]; 60 min 0.01 mM, 24 h
  aggregation of the PRP platelets after stimulation with collagen: −
PRP platelets [2]; 60 min 0.01 mM, 48 h
  aggregation of the PRP platelets after stimulation with collagen: −
PRP platelets [2]; 60 min 0.01 mM, 72 h
  aggregation of the PRP platelets after stimulation with collagen: −
PRP platelets [2]; 60 min 0.01 mM, 216 h
  aggregation of the PRP platelets after stimulation with collagen: −
PRP platelets [2]; 60 min 0.1 mM, 24 h
  aggregation of the PRP platelets after stimulation with collagen: −
PRP platelets [2]; 60 min 0.1 mM, 48 h
  aggregation of the PRP platelets after stimulation with collagen: −
PRP platelets [2]; 60 min 0.1 mM, 72 h
  aggregation of the PRP platelets after stimulation with collagen: −
PRP platelets [2]; 60 min 0.1 mM, 216 h
  aggregation of the PRP platelets after stimulation with collagen: −
PRP platelets [2]; 60 min 1 mM, 24 h
  aggregation of the PRP platelets after stimulation with collagen: −
PRP platelets [2]; 60 min 1 mM, 48 h
  aggregation of the PRP platelets after stimulation with collagen: −
PRP platelets [2]; 60 min 1 mM, 72 h
  aggregation of the PRP platelets after stimulation with collagen: −
PRP platelets [2]; 60 min 10 mM, 216 h
  aggregation of the PRP platelets after stimulation with collagen: −
PRP platelets [3]; 10 min 0.001 mM, 0 h
  aggregation of the PRP platelets after stimulation with collagen: +
PRP platelets [3]; 10 min 0.01 mM, 0 h
  aggregation of the PRP platelets after stimulation with collagen: +
PRP platelets [3]; 10 min 0.1 mM, 0 h
  aggregation of the PRP platelets after stimulation with collagen: +
PRP platelets [3]; 10 min 1 mM, 0 h
  aggregation of the PRP platelets after stimulation with collagen: +
PRP platelets [3]; 10 min 10 mM, 0 h
  aggregation of the PRP platelets after stimulation with collagen: ++
PRP platelets [3]; 10 min 10 mM, 24 h
  aggregation of the PRP platelets after stimulation with collagen: ++
PRP platelets [3]; 10 min 10 mM, 48 h
  aggregation of the PRP platelets after stimulation with collagen: ++
PRP platelets [3]; 10 min 10 mM, 72 h
  aggregation of the PRP platelets after stimulation with collagen: ++
PRP platelets [3]; 10 min 10 mM, 216 h
  aggregation of the PRP platelets after stimulation with collagen: ++
PRP platelets [3]; 60 min 0.001 mM, 0 h
  aggregation of the PRP platelets after stimulation with collagen: +
PRP platelets [3]; 60 min 0.01 mM, 0 h
  aggregation of the PRP platelets after stimulation with collagen: +
PRP platelets [3]; 60 min 0.1 mM, 0 h
  aggregation of the PRP platelets after stimulation with collagen: +
PRP platelets [3]; 60 min 1 mM, 0 h
  aggregation of the PRP platelets after stimulation with collagen: +
PRP platelets [3]; 60 min 10 mM, 0 h
  aggregation of the PRP platelets after stimulation with collagen: ++
PRP platelets [3]; 60 min 10 mM, 24 h
  aggregation of the PRP platelets after stimulation with collagen: ++
PRP platelets [3]; 60 min 10 mM, 48 h
  aggregation of the PRP platelets after stimulation with collagen: ++
PRP platelets [3]; 60 min 10 mM, 72 h
  aggregation of the PRP platelets after stimulation with collagen: ++
